{
  "source": "ChEMBL document CHEMBL4819024",
  "about": "“Synthesis and evaluation of andrographolide derivatives as potent anti-osteoporosis agents in vitro and in vivo” (Eur J Med Chem, 2021)",
  "key": {"BMMC [1]": {"system": "BMMC", "test": "Anti-osteoporosis activity in C57BL/6 mouse BMM cells assessed as inhibition of M-CSF/RANKL-induced osteoclastogenesis by measuring reduction in size and number of osteoclasts incubated for 5 days with media replenishment for every 48 hrs measured by TRAP-staining based analysis", "type": "functional, cell-based", "conditions": "dose 0.03-10 µM, time 5.0 day"}, "BMMC [2]": {"system": "BMMC", "test": "Anti-osteoporosis activity in C57BL/6 mouse BMM cells assessed as inhibition of M-CSF/RANKL-induced bone resorption at 10 uM after 48 hrs by hydroxyapatite assay using Leica inverted microscope", "type": "functional", "conditions": "C57BL/6, BMMC"}, "BMMC [3]": {"system": "BMMC", "test": "Downregulation of osteoclastogenesis-associated gene expression in C57BL/6 mouse BMM cells assessed as inhibition of M-CSF/RANKL-induced TRAcP expression at 5 uM after 5 days by qRT-PCR analysis", "type": "functional, cell-based", "conditions": "time 5.0 day"}, "BMMC [4]": {"system": "BMMC", "test": "Downregulation of osteoclastogenesis-associated gene expression in C57BL/6 mouse BMM cells assessed as inhibition of M-CSF/RANKL-induced CTSK expression at 5 uM after 5 days by qRT-PCR analysis", "type": "functional, cell-based", "conditions": "time 5.0 day"}, "BMMC [5]": {"system": "BMMC", "test": "Downregulation of osteoclastogenesis-associated gene expression in C57BL/6 mouse BMM cells assessed as inhibition of M-CSF/RANKL-induced NFATc1 expression at 5 uM after 5 days by qRT-PCR analysis", "type": "functional, cell-based", "conditions": "time 5.0 day"}, "BMMC [6]": {"system": "BMMC", "test": "Downregulation of osteoclastogenesis-associated gene expression in C57BL/6 mouse BMM cells assessed as inhibition of M-CSF/RANKL-induced MMP9 expression at 5 uM after 5 days by qRT-PCR analysis", "type": "functional, cell-based", "conditions": "time 5.0 day"}, "[7]": {"test": "Inhibition of RANKL-induced NFkappaB signaling pathway in mouse RAW264.7 cells assessed as reduction in NFkappaB p65 phosphorylation preincubated for 4 hrs followed by RANKL stimulation for 10 mins and measured by Western blot analysis", "type": "cell-based", "conditions": "dose 1-10 µM, time 250.0 min"}, "RAW264.7 [8]": {"system": "RAW264.7", "test": "Effect on NFkappaB p65 expression in RANKL-stimulated mouse RAW264.7 cells at 1 to 10 uM preincubated for 4 hrs followed by RANKL stimulation for 10 mins and measured by Western blot analysis", "type": "functional", "conditions": "dose 1-10 µM, time 250.0 min"}, "RAW264.7 [9]": {"system": "RAW264.7", "test": "Inhibition of RANKL-induced NFkappaB signaling pathway in mouse RAW264.7 cells assessed as reduction in IkappaB alpha phosphorylation at 10 uM preincubated for 4 hrs followed by RANKL stimulation for 10 mins and measured by Western blot analysis", "type": "cell-based", "conditions": "time 250.0 min"}, "RAW264.7 [10]": {"system": "RAW264.7", "test": "Inhibition of RANKL-induced NFkappaB signaling pathway in mouse RAW264.7 cells assessed as reduction in IkappaB alpha degradation at 10 uM preincubated for 4 hrs followed by RANKL stimulation for 10 mins and measured by Western blot analysis", "type": "cell-based", "conditions": "time 250.0 min"}, "[11]": {"target": "Transcription factor p65 (Mus musculus) (UniProt Q04207)", "sequence (Q04207 whole entry)": "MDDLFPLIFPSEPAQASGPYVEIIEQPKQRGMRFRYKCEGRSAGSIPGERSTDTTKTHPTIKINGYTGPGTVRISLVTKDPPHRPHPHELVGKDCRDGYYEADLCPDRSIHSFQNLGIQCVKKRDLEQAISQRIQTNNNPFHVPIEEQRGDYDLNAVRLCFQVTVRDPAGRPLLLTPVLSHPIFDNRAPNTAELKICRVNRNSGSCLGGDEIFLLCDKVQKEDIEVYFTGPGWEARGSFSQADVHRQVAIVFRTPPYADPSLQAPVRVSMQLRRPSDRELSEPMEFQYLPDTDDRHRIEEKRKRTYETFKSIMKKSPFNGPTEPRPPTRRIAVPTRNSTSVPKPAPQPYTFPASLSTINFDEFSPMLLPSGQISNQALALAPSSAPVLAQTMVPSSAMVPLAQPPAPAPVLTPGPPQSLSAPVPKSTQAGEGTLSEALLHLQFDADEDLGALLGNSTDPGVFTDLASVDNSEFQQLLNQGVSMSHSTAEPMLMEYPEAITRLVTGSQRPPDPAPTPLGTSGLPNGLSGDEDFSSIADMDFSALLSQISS", "test": "Inhibition of RANKL-induced NFkappaB signaling pathway in mouse RAW264.7 cells assessed as reduction in NFkappaB p65 nuclear translocation at 10 uM preincubated for 4 hrs followed by RANKL stimulation for 10 mins and measured by DAPI staining based immunofluorescence analysis", "type": "cell-based", "conditions": "time 250.0 min"}, "C3H 10T1/2 [12]": {"system": "C3H 10T1/2", "test": "Induction of osteoblast differentiation in mouse C3H10T1 /2 cells assessed as increase in ALP expression at 1 to 10 uM measured after 7 days by ALP staining based assay", "type": "functional, cell-based", "conditions": "dose 1-10 µM, time 7.0 day"}, "C3H 10T1/2 [13]": {"system": "C3H 10T1/2", "test": "Induction of osteoblast differentiation in mouse C3H10T1/2 cells assessed as increase in calcium nodule formation at 1 to 10 uM measured after 14 days by alizarin red staining assay", "type": "functional, cell-based", "conditions": "dose 1-10 µM, time 14.0 day"}, "Mus musculus [14]": {"system": "Mus musculus", "test": "Antiosteoporotic activity against OVX-induced bone loss C57BL/6 mouse model assessed as increase in trabecular bone mass in femoral metaphysis at 10 mg/kg, po QD for 4 weeks by microCT analysis", "type": "functional, organism-based", "conditions": "dose 10.0 mg/kg/day"}, "Mus musculus [15]": {"system": "Mus musculus", "test": "Antiosteoporotic activity against OVX-induced bone loss C57BL/6 mouse model assessed as increase in bone volume/total bone volume in femoral metaphysis at 10 mg/kg, po QD for 4 weeks", "type": "functional, organism-based", "conditions": "dose 10.0 mg/kg/day"}, "Mus musculus [16]": {"system": "Mus musculus", "test": "Antiosteoporotic activity against OVX-induced bone loss C57BL/6 mouse model assessed as increase in trabecular thickness in femoral metaphysis at 10 mg/kg, po QD for 4 weeks", "type": "functional, organism-based", "conditions": "dose 10.0 mg/kg/day"}, "Mus musculus [17]": {"system": "Mus musculus", "test": "Antiosteoporotic activity against OVX-induced bone loss C57BL/6 mouse model assessed as increase in trabecular number in femoral metaphysis at 10 mg/kg, po QD for 4 weeks", "type": "functional, organism-based", "conditions": "dose 10.0 mg/kg/day"}, "Mus musculus [18]": {"system": "Mus musculus", "test": "Antiosteoporotic activity against OVX-induced bone loss C57BL/6 mouse model assessed as decrease in trabecular spacing in femoral metaphysis at 10 mg/kg, po QD for 4 weeks", "type": "functional, organism-based", "conditions": "dose 10.0 mg/kg/day"}, "Mus musculus [19]": {"system": "Mus musculus", "test": "Antiosteoporotic activity against OVX-induced bone loss C57BL/6 mouse model assessed as decrease in osteocalcin secretion in serum at 10 mg/kg, po QD for 4 weeks", "type": "functional, organism-based", "conditions": "dose 10.0 mg/kg/day"}, "Mus musculus [20]": {"system": "Mus musculus", "test": "Antiosteoporotic activity against OVX-induced bone loss C57BL/6 mouse model assessed as decrease in ACP5 level in serum at 10 mg/kg, po QD for 4 weeks", "type": "functional, organism-based", "conditions": "dose 10.0 mg/kg/day"}, "Mus musculus [21]": {"system": "Mus musculus", "test": "Antiosteoporotic activity against OVX-induced bone loss C57BL/6 mouse model assessed as restoration of E2 level in serum at 10 mg/kg, po QD for 4 weeks", "type": "functional, organism-based", "conditions": "dose 10.0 mg/kg/day"}, "[22]": {"target": "MAP kinase p38 (Mus musculus) (UniProt P47811+O08911+Q9WUI1+Q9Z1B7)", "test": "Inhibition of RANKL-induced p38 phosphorylation in mouse RAW264.7 cells at 1 to 10 uM pretreated for 4 hrs prior to RANKL stimulation for 20 mins by western blot analysis", "type": "cell-based", "conditions": "dose 1-10 µM, time 260.0 min"}, "RAW264.7 [23]": {"system": "RAW264.7", "test": "Inhibition of RANKL-induced ERK phosphorylation in mouse RAW264.7 cells at 1 to 10 uM pretreated for 4 hrs prior to RANKL stimulation for 20 mins by western blot analysis", "type": "cell-based", "conditions": "dose 1-10 µM, time 260.0 min"}, "[24]": {"test": "Toxicity in OVX-induced bone loss C57BL/6 mouse model assessed as effect on liver morphology at 10 mg/kg, po QD for 4 weeks", "type": "organism-based", "conditions": "in vivo, 672 h, dose 10 mg/kg/day"}, "[25]": {"test": "Toxicity in OVX-induced bone loss C57BL/6 mouse model assessed as effect on spleen morphology at 10 mg/kg, po QD for 4 weeks", "type": "organism-based", "conditions": "in vivo, 672 h, dose 10 mg/kg/day"}, "[26]": {"test": "Toxicity in OVX-induced bone loss C57BL/6 mouse model assessed as effect on lung morphology at 10 mg/kg, po QD for 4 weeks", "type": "organism-based", "conditions": "in vivo, 672 h, dose 10 mg/kg/day"}, "[27]": {"test": "Toxicity in OVX-induced bone loss C57BL/6 mouse model assessed as effect on kidney morphology at 10 mg/kg, po QD for 4 weeks", "type": "organism-based", "conditions": "in vivo, 672 h"}, "[28]": {"test": "Toxicity in OVX-induced bone loss C57BL/6 mouse model assessed as effect on serum ALP level at 10 mg/kg, po QD for 4 weeks", "type": "organism-based", "conditions": "in vivo, 672 h, dose 10 mg/kg/day"}, "[29]": {"test": "Toxicity in OVX-induced bone loss C57BL/6 mouse model assessed as effect on serum CHO level at 10 mg/kg, po QD for 4 weeks", "type": "organism-based", "conditions": "in vivo, 672 h, dose 10 mg/kg/day"}, "[30]": {"test": "Toxicity in OVX-induced bone loss C57BL/6 mouse model assessed as effect on serum TG level at 10 mg/kg, po QD for 4 weeks", "type": "organism-based", "conditions": "in vivo, 672 h, dose 10 mg/kg/day"}, "[31]": {"test": "Toxicity in OVX-induced bone loss C57BL/6 mouse model assessed as effect on serum CK level at 10 mg/kg, po QD for 4 weeks", "type": "organism-based", "conditions": "in vivo, 672 h, dose 10 mg/kg/day"}},
  "note": "Active and inactive are the calls of the source. The calls are words filed in the database; no cut-off is given here.",
  "data": [
    {"molecule": "C=C1CC[C@@H]2[C@](C)(CNCc3ccc(F)cc3)[C@H](O)CC[C@@]2(C)[C@@H]1/C=C/C1=CCOC1=O", "values": [
      {"measurement": "Activity", "setting": "BMMC [1]", "result": "Dose-Dependent Effect"},
      {"measurement": "inhibition at 10 µM", "setting": "BMMC [2]", "result": 100, "unit": "%"},
      {"measurement": "inhibition", "setting": "BMMC [3]", "result": "Active"},
      {"measurement": "inhibition", "setting": "BMMC [4]", "result": "Active"},
      {"measurement": "inhibition", "setting": "BMMC [5]", "result": "Active"},
      {"measurement": "inhibition", "setting": "BMMC [6]", "result": "Active"},
      {"measurement": "inhibition", "setting": "[7]", "result": "Dose-Dependent Effect"},
      {"measurement": "Activity", "setting": "RAW264.7 [8]", "result": "inactive"},
      {"measurement": "inhibition", "setting": "RAW264.7 [9]", "result": "Active"},
      {"measurement": "inhibition", "setting": "RAW264.7 [10]", "result": "Active"},
      {"measurement": "inhibition", "setting": "[11]", "result": "Active"},
      {"measurement": "Activity", "setting": "C3H 10T1/2 [12]", "result": "inactive"},
      {"measurement": "Activity", "setting": "C3H 10T1/2 [13]", "result": "inactive"},
      {"measurement": "Activity", "setting": "Mus musculus [14]", "result": "Active"},
      {"measurement": "Activity", "setting": "Mus musculus [15]", "result": "Active"},
      {"measurement": "Activity", "setting": "Mus musculus [16]", "result": "Active"},
      {"measurement": "Activity", "setting": "Mus musculus [17]", "result": "Active"},
      {"measurement": "Activity", "setting": "Mus musculus [18]", "result": "Active"},
      {"measurement": "Activity", "setting": "Mus musculus [19]", "result": "Active"},
      {"measurement": "Activity", "setting": "Mus musculus [20]", "result": "Active"},
      {"measurement": "Activity", "setting": "Mus musculus [21]", "result": "Active"},
      {"measurement": "inhibition", "setting": "[22]", "result": "inactive"},
      {"measurement": "inhibition", "setting": "RAW264.7 [23]", "result": "inactive"},
      {"measurement": "Activity", "setting": "[24]", "result": "Non-Toxic"},
      {"measurement": "Activity", "setting": "[25]", "result": "Non-Toxic"},
      {"measurement": "Activity", "setting": "[26]", "result": "Non-Toxic"},
      {"measurement": "Activity", "setting": "[27]", "result": "Non-Toxic"},
      {"measurement": "Activity", "setting": "[28]", "result": "Non-Toxic"},
      {"measurement": "Activity", "setting": "[29]", "result": "Non-Toxic"},
      {"measurement": "Activity", "setting": "[30]", "result": "Non-Toxic"},
      {"measurement": "Activity", "setting": "[31]", "result": "Non-Toxic"}
    ]}
  ]
}
